Test results taken from US9781930B2, “3′-substituted-abscisic acid derivatives” (Valent BioSciences Corporation, priority 2014, dated 2017).

How the values were obtained:
Format in all cases: in vivo
[1] = test system: Arabidopsis thaliana seed; test: Seed germination inhibition assay for testing Examples 1-28 and 47-50; parameters: key to Arabidopsis seed germination inhibition potency: + + + +: The other derivatives were scored by potency relative to S-ABA.; (S)-ABA potency = + + +.; + +: The other derivatives were scored by potency relative to S-ABA.; ++: The other derivatives were scored by potency relative to S-ABA.; +: The other derivatives were scored by potency relative to S-ABA.; −− = no effect; conditions: 0.01-10.0 ppm in 96-well plates, scored on day 7, relative to (S)-ABA
Procedure: Seed Germination Inhibition Assay for Testing Examples 1-28 and 47-50 To determine the germination inhibition potency of the (S)-ABA derivatives, germination assays were performed with the model plant Arabidopsis thaliana. Arabidopsis seed was sterilized by shaking for five minutes in 200-proof ethanol, and followed by shaking for five minutes in a 10% bleach solution. The seeds were then washed five times in sterile, distilled, de-ionized water and suspended in 0.1% phytoagar. The tubes containing the seeds were wrapped in aluminum foil and stratified at 4° C. for two days. All compounds were tested at eight concentrations of 0 (DMSO control), 0.01, 0.03, 0.1, 0.3, 1.0, 3.0, and 10.0 ppm in 96-well plates. Each plate contained eight replicates of each concentration of the test compound and eight replicates of (S)-ABA at 0.1 ppm as the positive control. As an additional set of controls, each run of the assay also contained one plate dosed with (S)-ABA covering a range of concentrations up to 10 ppm. For each compound, 10× stock solutions corresponding to each of the tested concentrations were prepared in distilled and de-ionized water containing 5% DMSO. The stock test solution (10 μL) was added to each well according to the scheme described above, and 90 μL of ½× Murashige and Skoog media containing 1.2% Bactoagar was then added to each well (final DMSO concentration was 0.5%). When the media solidified, ten to fifteen sterile stratified Arabidopsis seeds were distributed into each well using a repeat pipettor. The plates were sealed with surgical tape and placed in a growth chamber running diurnal cycles of 12 hours of light at 24° C. and 12 hours of darkness at 19° C. The plates were scanned on days 3 through 7, and scored on day 7. The 3′-substituted-(S)-ABA derivatives were scored on ability to inhibit germination relative to the potency of (S)-ABA. The results are summarized below in “Table 1: Arabidopsis seed germination inhibition activity of (S)-ABA derivatives.”

[2] = test system: Arabidopsis thaliana seed; test: Seed germination assay for testing Examples 29-46; parameters: key: ++++: The 3′-substituted-derivatives were scored by potency relative to ABA.; (S)-ABA potency = +++.; ++: The 3′-substituted-derivatives were scored by potency relative to ABA.; +: The 3′-substituted-derivatives were scored by potency relative to ABA.; −− = no effect; conditions: 0.16-40 μM in 6-well plates, 4 days after vernalization, compared with (S)-ABA
Procedure: (§1) Seed Germination Assay for Testing Examples 29-46 To determine the germination inhibition potency of the (±)-ABA derivatives, germination assays were performed with the model plant Arabidopsis thaliana. Arabidopsis seed was sterilized by soaking in 70% ethanol solution for 5 minutes, followed by 5% sodium hypochlorite solution for 10 minutes. The seeds were then washed three times with sterile water. The test compounds were tested in germination assay at five concentrations (0.16, 0.64, 2.5, 10, and 40 μM) with (S)-ABA (0.16, 0.64 and 2.5 μM) as a control in 6-well plates. DMSO stock solutions of (S)-ABA and the derivatives at 1,000 fold of the test concentrations were prepared. The stock solutions (5 μL) of (S)-ABA and the derivatives were added to the wells in the assay plate with 0.8% agar solutions of ½ Murashige and Skoog media. Sixteen sterile seeds were placed on the solid agar medium at an appropriate spacing. The assay plates were sealed with surgical tape and wrapped in aluminum foil, and the seeds were vernalized at 4° C. for 2 days. The assay plates were incubated in a growth chamber at 22.5° C. under daily light cycles of 16 hours (30 μmol/m^2·sec) for 4 days after the vernalization. The germination inhibition potency of the derivatives was scored and compared with that of (S)-ABA. The results are summarized in Table 2 “Table 2: Arabidopsis seed germination inhibition activity of (±)-ABA derivatives.”

[3] = test system: Arabidopsis thaliana seed; test: Seed germination assay for testing Examples 29-46
Procedure: as §1

Row | SMILES | Arabidopsis seed germination inhibition potency [1] | Arabidopsis seed germination inhibition potency [2] | germination inhibition activity compared to (S)-ABA (in words) [3]
1 | CC1=CC(=O)CC(C)(C)[C@@]1(O)/C=C/C(C)=C/C(=O)O [(S)-ABA, (S)-abscisic acid, reference compound] | + + + | +++ | 
2 | CC1=C(C(C)F)C(=O)CC(C)(C)C1(O)/C=C/C(C)=C\C(=O)O (racemic) [Example 40, (2Z,4E)-5-(3-(1-fluoroethyl)-1-hydroxy-2,6,6-trimethyl-4-oxocyclohex-2-en-1-yl)-3-methylpenta-2,4-dienoic acid] |  | ++++ | more active than (S)-ABA
3 | CC1=C(C(F)(F)F)C(=O)CC(C)(C)C1(O)/C=C/C(C)=C\C(=O)O (racemic) [Example 45, (2Z,4E)-5-(1-hydroxy-2,6,6-trimethyl-4-oxo-3-(trifluoromethyl)cyclohex-2-en-1-yl)-3-methylpenta-2,4-dienoic acid] |  | ++++ | more active than (S)-ABA
4 | CCC1=C(C)C(O)(/C=C/C(C)=C\C(=O)O)C(C)(C)CC1=O (racemic) [Example 32, (2Z,4E)-5-(3-ethyl-1-hydroxy-2,6,6-trimethyl-4-oxocyclohex-2-en-1-yl)-3-methylpenta-2,4-dienoic acid] |  | +++ | the same level of potency as (S)-ABA
5 | CC1=C(C(C)(F)F)C(=O)CC(C)(C)C1(O)/C=C/C(C)=C\C(=O)O (racemic) [Example 39, (2Z,4E)-5-(3-(1,1-difluoroethyl)-1-hydroxy-2,6,6-trimethyl-4-oxocyclohex-2-en-1-yl)-3-methylpenta-2,4-dienoic acid] |  | ++++ | more active than (S)-ABA
6 | CC1=C(C(C)C)C(=O)CC(C)(C)C1(O)/C=C/C(C)=C\C(=O)O (racemic) [Example 31, (2Z,4E)-5-(1-hydroxy-3-isopropyl-2,6,6-trimethyl-4-oxocyclohex-2-en-1-yl)-3-methylpenta-2,4-dienoic acid] |  | + | 
7 | CCCCC1=C(C)C(O)(/C=C/C(C)=C\C(=O)O)C(C)(C)CC1=O (racemic) [Example 33, (2Z,4E)-5-(3-butyl-1-hydroxy-2,6,6-trimethyl-4-oxocyclohex-2-en-1-yl)-3-methylpenta-2,4-dienoic acid] |  | + | 
8 | CC1=C(C2CC2)C(=O)CC(C)(C)C1(O)/C=C/C(C)=C\C(=O)O (racemic) [Example 29, (2Z,4E)-5-(3-cyclopropyl-1-hydroxy-2,6,6-trimethyl-4-oxocyclohex-2-en-1-yl)-3-methylpenta-2,4-dienoic acid] |  | +++ | the same level of potency as (S)-ABA
9 | CC1=C(C2CCC2)C(=O)CC(C)(C)C1(O)/C=C/C(C)=C\C(=O)O (racemic) [Example 41, (2Z,4E)-5-(3-cyclobutyl-1-hydroxy-2,6,6-trimethyl-4-oxocyclohex-2-en-1-yl)-3-methylpenta-2,4-dienoic acid] |  | ++ | 
10 | CC1=C(C2CC2F)C(=O)CC(C)(C)C1(O)/C=C/C(C)=C\C(=O)O (racemic) [Example 43, (2Z,4E)-5-(3-(2-fluorocyclopropyl)-1-hydroxy-2,6,6-trimethyl-4-oxocyclohex-2-en-1-yl)-3-methylpenta-2,4-dienoic acid] |  | +++ | the same level of potency as (S)-ABA
11 | CC1=C(C(F)F)C(=O)CC(C)(C)C1(O)/C=C/C(C)=C\C(=O)O (racemic) [Example 38, (2Z,4E)-5-(3-(difluoromethyl)-1-hydroxy-2,6,6-trimethyl-4-oxocyclohex-2-en-1-yl)-3-methylpenta-2,4-dienoic acid] |  | +++ | the same level of potency as (S)-ABA
12 | CC1=C(CC(F)(F)F)C(=O)CC(C)(C)C1(O)/C=C/C(C)=C\C(=O)O (racemic) [Example 44, (2Z,4E)-5-(1-hydroxy-2,6,6-trimethyl-4-oxo-3-(2,2,2-trifluoroethyl)cyclohex-2-en-1-yl)-3-methylpenta-2,4-dienoic acid] |  | ++ | 
13 | CC1=C(Cc2cccc(F)c2)C(=O)CC(C)(C)[C@@]1(O)/C=C/C(C)=C\C(=O)O [Example 20, (2Z,4E)-5-((S)-3-(3-fluorobenzyl)-1-hydroxy-2,6,6-trimethyl-4-oxocyclohex-2-en-1-yl)-3-methylpenta-2,4-dienoic acid] | −− |  | 
14 | CC1=C(Cc2nc3ccccc3s2)C(=O)CC(C)(C)[C@@]1(O)/C=C/C(C)=C\C(=O)O [Example 28, (2Z,4E)-5-((S)-3-(benzo[d]thiazol-2-ylmethyl)-1-hydroxy-2,6,6-trimethyl-4-oxocyclohex-2-en-1-yl)-3-methylpenta-2,4-dienoic acid] | −− |  | 
15 | CC1=C(CC#N)C(=O)CC(C)(C)[C@@]1(O)/C=C/C(C)=C\C(=O)O [Example 11, (2Z,4E)-5-((S)-3-(cyanomethyl)-1-hydroxy-2,6,6-trimethyl-4-oxocyclohex-2-en-1-yl)-3-methylpenta-2,4-dienoic acid] | ++ |  | 
16 | CC1=C(CC(=O)O)C(=O)CC(C)(C)[C@@]1(O)/C=C/C(C)=C\C(=O)O [Example 10, (2Z,4E)-5-((S)-3-(carboxymethyl)-1-hydroxy-2,6,6-trimethyl-4-oxocyclohex-2-en-1-yl)-3-methylpenta-2,4-dienoic acid] | −− |  | 
17 | CC1=C(Cc2cc(F)cc(F)c2)C(=O)CC(C)(C)[C@@]1(O)/C=C/C(C)=C\C(=O)O [Example 23, (2Z,4E)-5-((S)-3-(3,5-difluorobenzyl)-1-hydroxy-2,6,6-trimethyl-4-oxocyclohex-2-en-1-yl)-3-methylpenta-2,4-dienoic acid] | −− |  | 
18 | CC1=C(Cc2ccc3ccccc3c2)C(=O)CC(C)(C)[C@@]1(O)/C=C/C(C)=C\C(=O)O [Example 14, (2Z,4E)-5-((S)-1-hydroxy-2,6,6-trimethyl-3-(naphthalen-2-ylmethyl)-4-oxocyclohex-2-en-1-yl)-3-methylpenta-2,4-dienoic acid] | −− |  | 
19 | CC1=C(Cc2ccccc2F)C(=O)CC(C)(C)[C@@]1(O)/C=C/C(C)=C\C(=O)O [Example 19, (2Z,4E)-5-((S)-3-(2-fluorobenzyl)-1-hydroxy-2,6,6-trimethyl-4-oxocyclohex-2-en-1-yl)-3-methylpenta-2,4-dienoic acid] | −− |  | 
